Test results reported in patent US20260335282A1, “NOVEL 3-ARYLIDENE-2-INDOLINONE DERIVATIVES FOR THERAPEUTIC USE” (ISTANBUL UNIVERSITESI REKTORLUGU, priority 2022, published 2026).
Where two headings read alike, the source gives them in different places.

Assays:
Type in all cases: cell-based, human
[1] = test system: CAKI-1 cells; experiment: MTT cytotoxicity, kidney cancer cells CAKI-1
Source text: (§1) The cytotoxicity, general tyrosine kinase inhibitory effects and cell death (apoptosis/necrosis) assays of 1-benzyl-3-(1H-indol-3-ylmethylidene)-1,3-dihydro-2H-indol-2-one derivatives (Formula 5) of the present invention are studied by the following methods. […] HUVEC (human umbilical vein endothelial cell), MCF-10F (human breast epithelial cell) and Beas2b (human lung bronchial epithelial cell) cell lines have been used as healthy control cells in MTT experiments.
(§2) Beas2b (human lung bronchiole epithelial cell) and HEK293 (renal tubule epithelium) cells used as normal cell lines were cultured in RPMI medium, and HUVEC (human umbilical cord endothelial cells) and MCF-10F (human breast epithelial cell) cells are cultured in DMEM medium containing 100 µg/ml penicillin/streptomycin. The cells, which covered 70% of the culture flask, are washed with phosphate buffer and then removed from the surface of the flask by application of trypsin-ethylenediamine tetraacetic acid (Trypsin-EDTA; 0.25%) solution, passaged, counted and seeded on appropriate plates before each experiment. Cells are treated with a total of 45 2-indolinone compounds (5) at concentrations of 0.1, 1, 5 and 10 μM. Stock compounds are prepared in 1 ml dimethylsulfoxide (DMSO) and 4 different dilutions were prepared with medium and performed to the cells. Control group cells are treated with DMSO at a similar concentration to the experimental groups.
(§3) MTT (3-(4,5-dimethylthiazol-2-yl)-2,5-diphenyl-2H-tetrazolium bromide) colorimetric assay provides quantitation of viable cells with ongoing mitochondrial activity in culture medium. According to the standard procedure in cell culture conditions, cells are maintained in RPMI-1640 and DMEM culture media containing 10% FBS and 1% penicillin/streptomycin. The trypan blue test is used for cell counts.
(§4) The effects of 45 2-indolinone compounds (5) on cell viability in all cancer cell lines are investigated by MTT assay. Cells are seeded in a 96-well flat bottom plate with 5000 cells in each well and 2-indolinone compounds (5) at concentrations of 0.1, 1, 5 and 10 μM are performed to the cells the next day. After 48 and/or 72 hours following treatment with 2-indolinone compounds, 50 μl of the supernatant is slowly discarded (as it was acid medium) and MTT at a concentration of 5 mg/ml is added to each well in a volume of 10 μl. After incubation for 4 hours, the formazan crystals formed in the wells are dissolved by adding 100 μl DMSO and the optical density is read at 570 nm test wavelength and 630 nm reference wavelength. Cell viability is expressed as % cell viability by comparing the absorbance of control and test wells. IC50 value is calculated from the dose-response curves prepared for each compound. In addition, the possible DMSO effect is eliminated by preparing negative control wells compatible with the amount of DMSO contained in the compounds. To understand the reaction of the compounds with MTT, cell-free (MTT+compounds) negative controls are prepared at the concentrations used (Mosmann, 1983). […] The absorbance values obtained are compared to the control and statistically evaluated by unpaired t-test using “Graphpad Prism 5.04” software. “P<0.05” is accepted as significant. When evaluating cytotoxic effects, the present inventors aim for the inventive compounds to be effective in cancer cells and ineffective in healthy cells. The inventive compounds have also been compared with sunitinib, one of the reference chemotherapy drugs currently used in treatment.
(§5) Among the compounds of the present invention, those that killed cancer cells by at least 50% (p<0.05) are selected and tested whether a 10-fold concentration of the M concentration at the IC50 value is toxic to normal healthy cells.

[2] = test system: MCF-7 cells; experiment: MTT cytotoxicity, breast cancer cells MCF-7; settings: MTT
Source text: as §1, §2, §3, §4, §5

[3] = test system: HT-29 cells; experiment: MTT cytotoxicity, colon cancer cells HT-29; settings: MTT, no * mark (incubation time not specified)
Source text: as §1, §2, §3, §4

[4] = test system: A498 cells; experiment: MTT cytotoxicity, kidney cancer cells A498; settings: MTT
Source text: as §1, §2, §3, §4, §5

[5] = test system: MDA-MB-231 cells; experiment: MTT cytotoxicity, breast cancer cells MDA-MB-231; settings: read-out: IC50, MDA-MB-231 (breast), MTT
Source text: as §1, §2, §3, §4, §5

[6] = test system: HCT-116 cells; experiment: MTT cytotoxicity, colon cancer cells HCT-116; settings: no * mark (incubation time not specified)
Source text: as §1, §2, §3, §4

[7] = test system: HUVEC cells; experiment: MTT cytotoxicity, healthy cells HUVEC; settings: for IC50: MTT
Source text: as §1, §2, §3, §4, §5

[8] = test system: MIAPaCa-2 cells; experiment: MTT cytotoxicity, pancreas cancer cells MIAPaCa-2; settings: MTT
Source text: as §1, §2, §3, §4

[9] = test system: A549 cells; experiment: MTT cytotoxicity, lung cancer cells A549; settings: no * mark (incubation time not specified)
Source text: as §1, §2, §3, §4, §5

[10] = test system: MCF-10F/Beas2b cells; experiment: MTT cytotoxicity, healthy cells MCF-10F/Beas2b; settings: for IC50: MTT
Source text: as §1, §2, §3, §4, §5

[11] = no * mark (incubation time not specified)
[12] = no * mark (incubation time not given)
[13] = *: effective 72 hours after incubation

SMILES	IC50 [1, 11]	IC50 [2, 11]	IC50 [3]	IC50 [4, 11]	IC50 [5, 12]	IC50 [6]	IC50 [7, 11]	IC50 [8, 13]	IC50 [9]	IC50 [1, 13]	IC50 [10, 11]	IC50 [7, 13]	IC50 [8, 11]	IC50 [4, 13]	Selectivite Index, MCF-10F/Beas2b (Table 2) ([10]; MCF-10F/Beas2b vs colon or pancreas cancer cells, cancer line not given)	IC50 [10, 13]	Selectivite Index, HUVEC (Table 2) ([7]; HUVEC vs colon or pancreas cancer cells, cancer line not given)	IC50 [2, 13]	IC50 [5, 13]
O=C1/C(=C\c2c[nH]c3ccccc23)c2cc(F)ccc2N1Cc1cccc(Cl)c1 [11C]	9.81 µM	> 10 µM	> 10 µM	> 10 µM	7.25 µM	> 10 µM	> 10 µM	> 10 µM	> 10 µM										
O=C1/C(=C\c2c[nH]c3ccccc23)c2cccc(Cl)c2N1Cc1cccc(Cl)c1 [25C]		4.5 µM	> 10 µM	2.91 µM	> 10 µM	2.9 µM	1.81 µM	3.23 µM	> 10 µM	8.07 µM	1.81 µM								
O=C1/C(=C\c2c[nH]c3ccccc23)c2cccc(F)c2N1Cc1ccccc1 [29C]	4.12 µM	4.35 µM	> 10 µM	> 10 µM	> 10 µM	> 10 µM			> 10 µM			0.95 µM	> 10 µM						
O=C1/C(=C\c2c[nH]c3ccccc23)c2cccc(F)c2N1Cc1cccc(Cl)c1 [32C]		3.86 µM	1.65 µM	8.26 µM	4.53 µM	4.31 µM			> 10 µM	8.76 µM	1.35 µM	1 µM	1.35 µM						
O=C1/C(=C\c2c[nH]c3ccccc23)c2cc(Cl)cc(Cl)c2N1Cc1ccccc1 [36C]		> 10 µM	> 10 µM		> 10 µM	2.51 µM	2.24 µM		2.35 µM	4.01 µM			0.46 µM	1.46 µM	7.83	3.6 µM	4.87		
O=C1/C(=C\c2c[nH]c3ccccc23)c2cccc(Cl)c2N1Cc1cccc(F)c1 [23C]	4.88 µM	3.07 µM	> 10 µM	8.33 µM	> 10 µM	> 10 µM	> 10 µM	> 10 µM	> 10 µM										
O=C1/C(=C\c2c[nH]c3ccccc23)c2cccc(F)c2N1Cc1cccc(F)c1 [30C]		4.31 µM	> 10 µM	6.57 µM	4.21 µM	2.06 µM			6.8 µM	7.7 µM	1.9 µM	0.94 µM	1.9 µM						
Cc1ccc(CN2C(=O)/C(=C\c3c[nH]c4ccccc34)c3cccc(F)c32)cc1 [35C]	4.5 µM	> 10 µM	1.01 µM		> 10 µM	0.23 µM	1.62 µM		5.93 µM		3.23 µM		0.62 µM	3.09 µM					
O=C1/C(=C\c2c[nH]c3ccccc23)c2cc(F)ccc2N1Cc1ccc(Cl)cc1 [12C]	2.81 µM		1.08 µM			0.64 µM	0.55 µM		1.68 µM		2.46 µM		0.49 µM	0.63 µM		2.46 µM		2.63 µM	6.8 µM
O=C1/C(=C\c2c[nH]c3ccccc23)c2cccc(Cl)c2N1Cc1ccc(F)cc1 [24C]		5.08 µM	0.73 µM	2.6 µM	7.41 µM	2.35 µM	1.26 µM		8.08 µM	5.72 µM	1.26 µM		1.12 µM						
Cc1cccc(CN2C(=O)/C(=C\c3c[nH]c4ccccc34)c3cc(C)ccc32)c1 [48C]			1.46 µM		> 10 µM	0.6 µM	1.07 µM		3 µM	3.46 µM	3.35 µM		2.02 µM	0.73 µM		3.35 µM		3.96 µM	
O=C1/C(=C\c2c[nH]c3ccccc23)c2cccc(Cl)c2N1Cc1ccc(Cl)cc1 [26C]	4.5 µM	3.55 µM	> 10 µM	6.92 µM	> 10 µM	> 10 µM	> 10 µM	> 10 µM	> 10 µM										
Cc1ccc2c(c1)/C(=C/c1cn(C)c3ccccc13)C(=O)N2Cc1ccccc1 [Y13]	> 10 µM	> 10 µM	3.37 µM	> 10 µM	> 10 µM	4.58 µM	3.37 µM		> 10 µM				2.2 µM						
Cc1cccc(CN2C(=O)/C(=C\c3c[nH]c4ccccc34)c3cc(OC(F)(F)F)ccc32)c1 [6C]	9.66 µM	4.72 µM	> 10 µM	> 10 µM	9.87 µM	> 10 µM	> 10 µM	> 10 µM	> 10 µM										
Cn1cc(/C=C2\C(=O)N(Cc3ccccc3)c3ccccc32)c2ccccc21 [Y12]	> 10 µM	> 10 µM	> 10 µM	> 10 µM	> 10 µM	1.46 µM	> 10 µM		> 10 µM				> 10 µM						
